Patent publication US5506204A, “Muramyl compounds for treatment of septic shock” (Peptech (UK) Limited, priority 1991, dated 1996)

Key:
IL-1 = test: Example 6: IL-1 production by peritoneal macrophages in response to LPS; assay type: in vivo, BALB/c mice; settings: 2 injections 12 hours apart; macrophages stimulated with LPS 25 μg/ml 24 hours; thymocyte co-stimulation bioassay; FIG. 4
Method: Mice (BALB/c, female) 13-14 g, 5 animals in each group, received 2 injections of MDPs, 12 hours apart. The MDPs tested were MDP, muroctasin, MDP-Thr, MDP-OBu, GMDP-LL, GMDP-Lys(St) and GMDP-A. After the last injection, peritoneal cells were collected and the induction of IL-1 secretion by peritoneal macrophages was tested.
Macrophages were collected from the peritoneal cavity of mice by lavage with Hank's balanced salt solution. After washing the cells, they were then placed in wells of flat-bottomed 96-well plates and incubated at 37° C. for 1 hour in RPMI containing 5% FCS. The plates were then washed with warm RPMI to remove non-adhering cells. LPS (25 μg/ml) was then added in fresh culture medium and the plates were further cultured for 24 hours.
Production of IL-1 by peritoneal macrophages was assayed by thymocyte co-stimulation bioassay. Thymocytes from (CBA*C57BL.6)F1 mice (106), PHA (1 μg.ml), and the tested supernatant (50 μl) were placed into the wells of flat-bottomed 96-well plates. Thymocyte proliferation rate was measured 72 hours later by the incorporation of 3H TdR (1 μCi.well) during 6 hours prior to culture termination.

TNFα = test: Example 8: TNF induction by muramyl peptides; assay type: in vivo, BALB/c mice; settings: C. parvum-primed mice, 100 μg (equimolar) IP, LPS 25 μg 18 hours later; FIG. 6
Method: Here, the muramyl peptides tested were prototype MDP, GMDP, GMDP-A, GMDP-OBu, GMDP-Lys(St), GMDPA-Lys(St), GMDP-Benz and Thr-MDP.
(§1) BALB/mice (6 mice/groups) were injected intraperitoneally with 1.4 mg of dead C. parvum (0.2 ml of a 7 mg/ml suspension). Mice were subsequently (2 weeks later) treated with saline, MDP (100 μg) or analogue (100 μg) in 0.5 ml saline IP. The dose of each `MDP` was adjusted so that animals received equimolar amounts. LOS (25 μg) was injected 18 hours after the injection of MDP/analogue and the mice were subsequently sacrificed and bled out. TNF was determined by standard capture ELISA assay.

Pyrogenicity = settings: in vivo
Method: The expression "non pyrogenic or of low pyrogenicity" refers to a compound which induces an increase in temperature of an adult human of less than half a degree following the administration of 1 to 2 mg of the compound.
First, muramyl peptide compounds useful in the invention may be non-pyrogenic. Pyrogenicity may be simply measured by methods well known in the art.

[1] = tested on: LPS-induced mortality in mice; test: Example 3: LPS-induced mortality in mice; assay type: in vivo, BALB/c mice; settings: i.p. twice daily 100 μg or molar equivalent per mouse for 9 days before 300 μg LPS; mortality 2 days after LPS; FIG. 1
Method: 25 female BALB/c mice weighing 16-18 g each were divided into 5 groups, each group containing 5 animals. Each group of mice received twice-daily doses of saline, GMDP, GMDP-OBu, MDP or GMDP-A. The compounds were administered by intra-peritoneal injection in twice-daily doses of 100 μg or the molar equivalent per mouse during a 9-day period before the injection of 300 μg LPS per mouse. […] Thus GMDP and GMDP-A would be useful in the treatment and prevention of sepsis and septic shock, whereas MDP and GMDP-OBu would not.

serum TNF = test: Example 7: LPS induction of serum TNF; assay type: in vivo, BALB/c mice; settings: C. parvum-primed mice, 100 μg (equimolar) IP, LPS 25 μg 18 hours later; FIG. 5
Method: as §1, with “In this experiment, 4 compounds were tested and these are: MDP, GMDP-A, GMDP-OBu and GMDP. Saline was administered to control mice. BALB/c mice” for “BALB/mice”, “mice/group)” for “mice/groups)”, “suspension.).” for “suspension).”, “LPS” for “LOS”, “and” for “and the”

Molecule	suppression of IL-1 production (IL-1)	effect on LPS-induced TNFα production (TNFα)	pyrogenicity (Pyrogenicity)	effect on LPS-induced mortality [1]	effect on LPS induction of serum TNF (serum TNF)
CCCCOC(=O)[C@@H](CCC(N)=O)NC(=O)[C@H](C)NC(=O)[C@@H](C)O[C@H]1[C@H](O)[C@@H](CO)OC(O)[C@@H]1NC(C)=O (stereo partly drawn) [MDP-OBu, N-acetylmuramyl-L-alanyl-D-glutamine-α-N-butyl ester, reference compound]	suppress the IL-1 response to LPS				
N*-[N-Acetyl-D-glucosaminyl-(β1-4)-N-acetyl-muramyl-L-alanyl-γ-D-glutamyl]-N*-stearoyl-L-lysine [GMDPA-Lys(St)]		enhance LPS-induced TNF production			
N*-[N-acetyl-D-glucosaminyl-(β1-4)-N-acetylmuramyl-L-alanyl-D-isoglutaminyl]-N*-stearoyl-L-lysine [GMDP-Lys(St)]	suppress the IL-1 response to LPS	enhance LPS-induced TNF production			
N-acetyl-D-glucosaminyl-(β1-4)-N acetylmuramyl-L-alanyl-D-glutamine n-butyl ester [GMDP-OBu]		consistently failed to synergise with LPS			
N-acetyl-D-glucosaminyl-(β1-4)-N-acetylmuramyl-L-alanyl-D-glutamicacid [GMDP-A]	suppress the IL-1 response to LPS		even less pyrogenic analogue	antagonise the effect of LPS	pro-inflammatory, causing an enhancement of the TNF levels induced by LPS
